Data published in ChEMBL document CHEMBL5528085, “Subtle Structural Changes across the Boundary between A2AR/A2BR Dual Antagonism and A2BR Antagonism: A Novel Class of 2-Aminopyrimidine-Based Derivatives” (J Med Chem, 2024).
Activity calls are given as the source filed them. The calls are words filed in the database; no cut-off is given here.

Experiments:
Adenosine receptor A2b [1] = target: T1, Adenosine receptor A2b (Homo sapiens, UniProt P29275); test: Antagonist activity at human adenosine 2B receptor overexpressed in HEK293 cells preincubated for 0.5 hrs followed by NECA stimulation by GloSensor cAMP assay; assay type: functional, cell-based
T1 sequence (P29275 whole entry): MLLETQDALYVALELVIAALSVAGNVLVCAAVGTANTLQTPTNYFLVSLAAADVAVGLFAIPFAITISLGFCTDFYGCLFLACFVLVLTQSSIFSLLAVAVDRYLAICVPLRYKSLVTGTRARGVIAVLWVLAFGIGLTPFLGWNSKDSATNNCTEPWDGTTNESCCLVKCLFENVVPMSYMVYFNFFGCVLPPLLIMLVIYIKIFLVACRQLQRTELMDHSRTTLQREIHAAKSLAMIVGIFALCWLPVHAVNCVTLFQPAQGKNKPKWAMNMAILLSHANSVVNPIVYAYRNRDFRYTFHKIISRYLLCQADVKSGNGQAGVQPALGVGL

Homo sapiens = species on record: Homo sapiens; test: Selectivity ratio of IC50 for antagonist activity at human adenosine 2A receptor overexpressed in HEK293 cells to IC50 for antagonist activity at human adenosine 2B receptor overexpressed in HEK293 cells; assay type: cell-based
Adenosine receptor A2a [2] = target: T2, Adenosine receptor A2a (Homo sapiens, UniProt P29274); test: Antagonist activity at human adenosine 2A receptor overexpressed in HEK293 cells preincubated for 0.5 hrs followed by NECA stimulation by GloSensor cAMP assay; assay type: functional, cell-based
T2 sequence (P29274 whole entry): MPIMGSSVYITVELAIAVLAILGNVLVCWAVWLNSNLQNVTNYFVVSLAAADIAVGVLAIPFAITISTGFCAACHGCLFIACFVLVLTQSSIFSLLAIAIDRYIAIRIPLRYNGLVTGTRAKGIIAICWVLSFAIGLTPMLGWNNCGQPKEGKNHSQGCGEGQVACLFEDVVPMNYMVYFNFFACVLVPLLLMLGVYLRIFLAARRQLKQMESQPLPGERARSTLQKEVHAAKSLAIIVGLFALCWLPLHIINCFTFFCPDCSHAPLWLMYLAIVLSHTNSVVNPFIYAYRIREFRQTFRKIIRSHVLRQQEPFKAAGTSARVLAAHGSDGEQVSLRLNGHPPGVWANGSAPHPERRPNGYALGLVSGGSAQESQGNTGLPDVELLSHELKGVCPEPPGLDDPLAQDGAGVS

Adenosine receptor A2a [3] = target: T2, Adenosine receptor A2a; test: Antagonist activity at adenosine 2A receptor (unknown origin)
Adenosine receptor A2b [4] = target: T1, Adenosine receptor A2b; test: Antagonist activity at adenosine 2B receptor (unknown origin); assay type: functional
Adenosine receptor A1 = target: T3, Adenosine receptor A1 (Homo sapiens, UniProt P30542); test: Antagonist activity at human Adenosine A1 receptor overexpressed in HEK293 cells preincubated for 0.5 hrs followed by NECA stimulation by GloSensor cAMP assay; assay type: functional, cell-based
T3 sequence (P30542 whole entry): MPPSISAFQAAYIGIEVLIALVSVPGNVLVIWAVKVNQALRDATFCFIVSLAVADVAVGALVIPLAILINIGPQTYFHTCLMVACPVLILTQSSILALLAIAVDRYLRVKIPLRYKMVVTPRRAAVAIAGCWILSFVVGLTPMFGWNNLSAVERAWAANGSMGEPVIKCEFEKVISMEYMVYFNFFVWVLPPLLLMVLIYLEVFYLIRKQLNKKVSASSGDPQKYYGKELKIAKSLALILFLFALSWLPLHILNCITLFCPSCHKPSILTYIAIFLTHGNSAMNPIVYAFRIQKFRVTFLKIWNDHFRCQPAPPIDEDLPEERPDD

Adenosine receptor A2b [5] = target: T1, Adenosine receptor A2b; test: Antagonist activity at human adenosine 2B receptor overexpressed in HEK293 cells preincubated for 0.5 hrs followed by NECA stimulation by Schild plot based GloSensor cAMP assay; assay type: functional, cell-based; conditions: read-out: pA2 (converted)
Adenosine receptor A3 = target: T4, Adenosine receptor A3 (Homo sapiens, UniProt P0DMS8); test: Antagonist activity at human Adenosine A3 receptor overexpressed in HEK293 cells preincubated for 0.5 hrs followed by NECA stimulation by GloSensor cAMP assay; assay type: functional, cell-based
T4 sequence (P0DMS8 whole entry): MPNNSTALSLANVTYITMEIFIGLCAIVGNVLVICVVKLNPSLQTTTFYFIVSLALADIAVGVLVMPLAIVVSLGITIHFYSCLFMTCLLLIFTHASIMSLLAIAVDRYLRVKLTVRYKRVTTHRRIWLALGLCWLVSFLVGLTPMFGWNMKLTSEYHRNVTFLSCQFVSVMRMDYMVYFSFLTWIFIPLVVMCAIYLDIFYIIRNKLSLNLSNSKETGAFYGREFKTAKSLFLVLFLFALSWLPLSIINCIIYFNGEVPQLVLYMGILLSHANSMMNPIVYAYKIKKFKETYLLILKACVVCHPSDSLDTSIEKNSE

Adenosine receptor A2b [6] = target: T1, Adenosine receptor A2b; test: (§1) Antagonist activity at human adenosine 2B receptor expressed in HEK293 cells co-expressing CRE-luciferase plasmid assessed as inhibition of NECA-stimulated luciferase expression preincubated with compound for 0.5 hrs followed by NECA stimulation and measured after 4 hrs by luciferase based CRE reporter assay; assay type: functional, cell-based
Adenosine receptor A2a [7] = target: T2, Adenosine receptor A2a; test: as §1, with “2A” for “2B”; assay type: functional, cell-based
[8] = Downregulation of NECA-induced PD-1 expression in human Jurkat T cells at 0.1 to 10 uM incubated for 5 hrs in presence of PMA and ionomycin by q-PCR analysis; assay type: functional; conditions: dose 0.1-10 µM
Adenosine receptor A2a [9] = target: T2, Adenosine receptor A2a; test: Antagonist activity at human adenosine 2A receptor overexpressed in HEK293 cells preincubated for 0.5 hrs followed by NECA stimulation by Schild plot based GloSensor cAMP assay; assay type: functional, cell-based; conditions: read-out: pA2 (converted)
[10] = Downregulation of NECA-induced TIM-3 expression in human Jurkat T cells at 0.1 to 10 uM incubated for 5 hrs in presence of PMA and ionomycin by q-PCR analysis; assay type: functional; conditions: dose 0.1-10 µM
MC38-OVA = test: Induction of T-cell mediated cell death in mouse MC38-OVA cells co-cultured with OT-1 CTL assessed as reversal of NECA-induced impairment in OT-I CTL mediated cell killing at 10 uM incubated for 48 hrs by calcein AM dye based fluorescence microscopic analysis; assay type: functional

SMILES | IC50 (Adenosine receptor A2b [1]) [nM] | IC50 (Adenosine receptor A2a [2]) [nM] | Ratio IC50 (Homo sapiens) | other results
Cc1ccc2[nH]cc(Cn3cc(-c4cc(-c5cccc(C#N)c5C)nc(N)n4)nn3)c2c1 | 43.4 | 103 | 2.4 | 
Cc1c(C#N)cccc1-c1cc(-c2cn(Cc3c[nH]c4ccc(OC5CCCC5)cc34)nn2)nc(N)n1 | 349 | 97.4 | 0.3 | 
COc1ccc2c(Cn3cc(-c4cc(-c5cccc(C#N)c5C)nc(N)n4)nn3)c[nH]c2c1 | 27.6 | 133 | 4.8 | 
Cc1c(C#N)cccc1-c1cc(-c2cn(Cc3ccc4[nH]ccc4c3)nn2)nc(N)n1 | 43.1 | 1010 | 23.5 | 
Cc1c(C#N)cccc1-c1cc(-c2cn(Cc3c[nH]c4ccc(Cl)cc34)nn2)nc(N)n1 | 45.4 | 244 | 5.4 | 
Cc1c(C#N)cccc1-c1cc(-c2cn(Cc3c[nH]c4cnccc34)nn2)nc(N)n1 | 11.1 | 1910 | 172 | 
Cc1c(C#N)cccc1-c1cc(-c2cn(Cc3c[nH]c4cccnc34)nn2)nc(N)n1 | 3.6 |  |  | 
Cc1c(C#N)cccc1-c1cc(-c2cn(Cc3cccc(C(C)(C)O)n3)nn2)nc(N)n1 [ETRUMADENANT] | 31.4 | 7.5 | 0.2 | Ki (Adenosine receptor A2a [3]): 0.851 nM; Ki (Adenosine receptor A2b [4]): 3.16 nM; IC50 (Adenosine receptor A1): 87.3 nM
Cc1c(C#N)cccc1-c1cc(-c2cn(Cc3ccc4cc[nH]c4c3)nn2)nc(N)n1 | 134 | 427 | 3.2 | 
Cc1c(C#N)cccc1-c1cc(-c2cn(Cc3c[nH]c4cc(Cl)c(Cl)cc34)nn2)nc(N)n1 | 209 | 6320 | 30.2 | 
COc1ncc(C2=CCOCC2)c2sc(NC(=O)N3CC[C@@]4(CCCOC4)C3)nc12 [MUVADENANT] |  |  |  | IC50 (Adenosine receptor A2a [3]): < 10 nM; IC50 (Adenosine receptor A2b [4]): < 10 nM
Cc1c(C#N)cccc1-c1cc(-c2cn(Cc3c[nH]c4ccccc34)nn2)nc(N)n1 | 43.8 | 112 | 2.6 | 
COC(=O)c1ccc2[nH]cc(Cn3cc(-c4cc(-c5cccc(C#N)c5C)nc(N)n4)nn3)c2c1 | 38.2 | 70.2 | 1.8 | 
COc1ccc2[nH]cc(Cn3cc(-c4cc(-c5cccc(C#N)c5C)nc(N)n4)nn3)c2c1 | 44.7 |  |  | 
Cc1c(C#N)cccc1-c1cc(-c2cn(Cc3cc4ccccc4[nH]3)nn2)nc(N)n1 | 654 |  |  | 
Cc1c(C#N)cccc1-c1cc(-c2cn(Cc3c[nH]c4ccc(S(C)(=O)=O)cc34)nn2)nc(N)n1 | 9.7 | 18.3 | 1.9 | 
Cc1c(C#N)cccc1-c1cc(-c2cn(Cc3c[nH]c4ccc(F)cc34)nn2)nc(N)n1 | 14.3 | 63.3 | 4.4 | 
Cc1c(C#N)cccc1-c1cc(-c2cn(Cc3c[nH]c4ncccc34)nn2)nc(N)n1 | 215 | 2260 | 10.5 | 
Cc1ccc2c(Cn3cc(-c4cc(-c5cccc(C#N)c5C)nc(N)n4)nn3)c[nH]c2c1 | 48.6 | 324 | 6.7 | 
COC(=O)c1ccc2c(Cn3cc(-c4cc(-c5cccc(C#N)c5C)nc(N)n4)nn3)c[nH]c2c1 | 97.7 | > 100000 |  | 
Cc1c(C#N)cccc1-c1cc(-c2cn(Cc3c[nH]c4cc(Cl)ccc34)nn2)nc(N)n1 | 55.8 | 753 | 13.5 | 

More lines, main results first:

IC50 (Adenosine receptor A2b [1]) [nM] | IC50 (Adenosine receptor A2a [2]) [nM] | SMILES | Ratio IC50 (Homo sapiens) | other results
71.6 |  | Cc1c(C#N)cccc1-c1cc(-c2cn(Cc3c[nH]c4cc(OC5CCCC5)ccc34)nn2)nc(N)n1 |  | 
131 | 34.8 | Cc1c(C#N)cccc1-c1cc(-c2cn(Cc3csc4ccccc34)nn2)nc(N)n1 | 0.3 | 
> 100000 | 7860 | Cc1c(C#N)cccc1-c1cc(-c2cn(Cc3cccc4cc[nH]c34)nn2)nc(N)n1 |  | 
1080 | 1140 | Cc1c(C#N)cccc1-c1cc(-c2cn(Cc3c[nH]c4c(Cl)cccc34)nn2)nc(N)n1 | 1.1 | 
30.6 | 3850 | Cc1c(C#N)cccc1-c1cc(-c2cn(Cc3c[nH]c4cc(OC(C)C)ccc34)nn2)nc(N)n1 | 126 | 
101 | 11.6 | Cc1c(C#N)cccc1-c1cc(-c2cn(Cc3csc4c3CCCC4)nn2)nc(N)n1 | 0.1 | 
103 | 69.9 | Cc1c(C#N)cccc1-c1cc(-c2cn(Cc3c[nH]c4ccc(OC(C)C)cc34)nn2)nc(N)n1 | 0.7 | 
316 | 172 | Cc1c(C#N)cccc1-c1cc(-c2cn(Cc3c[nH]c4cccc(Cl)c34)nn2)nc(N)n1 | 0.5 | 
41.7 | 129 | Cc1c(C#N)cccc1-c1cc(-c2cn(Cc3n[nH]c4ccccc34)nn2)nc(N)n1 | 3.1 | 
3.4 | 431 | Cc1c(C#N)cccc1-c1cc(-c2cn(Cc3c[nH]c4cc(S(C)(=O)=O)ccc34)nn2)nc(N)n1 | 127 | 
2.6 | 242 | Cc1c(C#N)cccc1-c1cc(-c2cn(Cc3c[nH]c4cc(C#N)ccc34)nn2)nc(N)n1 | 93.2 | 
6.4 | 11.2 | Cc1c(C#N)cccc1-c1cc(-c2cn(Cc3c[nH]c4ccc(C#N)cc34)nn2)nc(N)n1 | 1.8 | Kb (Adenosine receptor A2b [5]): 1.32 nM; IC50 (Adenosine receptor A3): > 1000 nM; IC50 (Adenosine receptor A2b [6]): 8.1 nM; IC50 (Adenosine receptor A2a [7]): 7.3 nM; IC50 (Adenosine receptor A1): > 1000 nM; Activity [8]: ~100%; Kb (Adenosine receptor A2a [9]): 1.62 nM; Activity [10]: ~100%; Activity (MC38-OVA): Active
11.6 | 169 | Cc1c(C#N)cccc1-c1cc(-c2cn(Cc3c[nH]c4ccncc34)nn2)nc(N)n1 | 14.6 | 
13.7 | 120 | Cc1c(C#N)cccc1-c1cc(-c2cn(Cc3c[nH]c4cc(F)ccc34)nn2)nc(N)n1 | 8.8 | 
> 100000 | > 100000 | Cc1c(C#N)cccc1-c1cc(-c2cn(Cc3cn(C)c4ccccc34)nn2)nc(N)n1 |  | 
> 100000 | 5820 | Cc1c(C#N)cccc1-c1cc(-c2cn(Cc3cccc4[nH]ccc34)nn2)nc(N)n1 |  | 
> 100000 | > 100000 | Cc1c(C#N)cccc1-c1cc(-c2cn(Cc3cnc4ccccn34)nn2)nc(N)n1 |  | 
